Laboratory results: PMC5218480 (PLoS ONE, 2017)

System: MV-4-11 cells
Test: Gene expression microarray analysis (Affymetrix PrimeView) and GSEA
Format: cell-based, human
Set-up: RFU PODN (11730768_x_at) / Fold change /veh PODN (11730768_x_at) / RFU LINC00158 (11744669_a_at) / Fold change /veh LINC00158 (11744669_a_at) / RFU DUSP10 (11751237_a_at) / Fold change /veh DUSP10 (11751237_a_at) / RFU ID3 (11757404_x_at) / Fold change /veh ID3 (11757404_x_at) / RFU PLEKHG5 (11737974_s_at) / Fold change /veh PLEKHG5 (11737974_s_at) / RFU LRRC4B (11730491_at) / Fold change /veh LRRC4B (11730491_at) / RFU GIMAP4 (11747438_a_at) / Fold change /veh GIMAP4 (11747438_a_at) / RFU KRT8 (11758183_x_at) / Fold change /veh KRT8 (11758183_x_at) / RFU CNN1 (11734310_a_at) / Fold change /veh CNN1 (11734310_a_at) / RFU VPS37D (11726825_at) / Fold change /veh VPS37D (11726825_at) / RFU C10orf10 (11716522_x_at) / Fold change /veh C10orf10 (11716522_x_at) / RFU KIR2DL2 /// KIR2DL4 /// KIR2DL5A /// KIR2DL5B /// KIR2DS1 /// KIR2DS2 /// KIR2DS3 /// KIR2DS4 /// KIR3DL3 /// KIR3DL3 /// KIR3DS1 (11738374_at) / Fold change /veh KIR2DL2 /// KIR2DL4 /// KIR2DL5A /// KIR2DL5B /// KIR2DS1 /// KIR2DS2 /// KIR2DS3 /// KIR2DS4 /// KIR3DL3 /// KIR3DL3 /// KIR3DS1 (11738374_at) / RFU C1QL1 (11718748_at) / Fold change /veh C1QL1 (11718748_at) / RFU TMPRSS4 (11747572_a_at) / Fold change /veh TMPRSS4 (11747572_a_at) / RFU HAMP (11756126_x_at) / Fold change /veh HAMP (11756126_x_at) / RFU RNFT2 (11725882_a_at) / Fold change /veh RNFT2 (11725882_a_at) / RFU NR4A2 (11747474_a_at) / Fold change /veh NR4A2 (11747474_a_at) / RFU ABCC12 (11746883_a_at) / Fold change /veh ABCC12 (11746883_a_at) / RFU TMEM136 (11760407_x_at) / Fold change /veh TMEM136 (11760407_x_at) / RFU CLDN22 /// WWC2 (11732394_at) / Fold change /veh CLDN22 /// WWC2 (11732394_at) / RFU HLA-DPB1 (11760878_x_at) / Fold change /veh HLA-DPB1 (11760878_x_at) / RFU SPINT1 (11716480_a_at) / Fold change /veh SPINT1 (11716480_a_at) / RFU GAP43 (11754022_s_at) / Fold change /veh GAP43 (11754022_s_at) / RFU A4GNT (11735810_at) / Fold change /veh A4GNT (11735810_at) / RFU PRB3 (11715151_x_at) / Fold change /veh PRB3 (11715151_x_at) / RFU TUBB4B (11761932_at) / Fold change /veh TUBB4B (11761932_at) / RFU CAPN14 (11732068_a_at) / Fold change /veh CAPN14 (11732068_a_at) / RFU TMCC2 (11721928_a_at) / Fold change /veh TMCC2 (11721928_a_at) / RFU IRGQ (11745062_a_at) / Fold change /veh IRGQ (11745062_a_at) / RFU FAM174B (11720279_a_at) / Fold change /veh FAM174B (11720279_a_at) / RFU TMPRSS4 (11748680_a_at) / Fold change /veh TMPRSS4 (11748680_a_at) / RFU FAM212B (11763350_a_at) / Fold change /veh FAM212B (11763350_a_at) / RFU PLEKHG5 (11743358_a_at) / Fold change /veh PLEKHG5 (11743358_a_at) / RFU ZSCAN30 (11745921_a_at) / Fold change /veh ZSCAN30 (11745921_a_at) / RFU CMKLR1 (11741424_a_at) / Fold change /veh CMKLR1 (11741424_a_at) / RFU LOC101060620 /// MAPK8IP1 (11723275_at) / Fold change /veh LOC101060620 /// MAPK8IP1 (11723275_at) / RFU SPTSSB (11747773_x_at) / Fold change /veh SPTSSB (11747773_x_at) / RFU PRSS12 (11739890_at) / Fold change /veh PRSS12 (11739890_at) / RFU BIN1 (11741810_x_at) / Fold change /veh BIN1 (11741810_x_at) / RFU WNT11 (11732464_a_at) / Fold change /veh WNT11 (11732464_a_at) / RFU C10orf10 (11716521_a_at) / Fold change /veh C10orf10 (11716521_a_at) / RFU C5orf56 (11738089_at) / Fold change /veh C5orf56 (11738089_at) / RFU CYB561 (11721691_x_at) / Fold change /veh CYB561 (11721691_x_at) / RFU ANKRD19P (11752326_a_at) / Fold change /veh ANKRD19P (11752326_a_at) / RFU OR2T12 /// OR2T33 /// OR2T8 (11738714_s_at) / Fold change /veh OR2T12 /// OR2T33 /// OR2T8 (11738714_s_at) / RFU VCAN (11748164_a_at) / Fold change /veh VCAN (11748164_a_at) / RFU JSRP1 (11732532_at) / Fold change /veh JSRP1 (11732532_at) / RFU KRTAP10-11 (11738290_x_at) / Fold change /veh KRTAP10-11 (11738290_x_at) / RFU MYO3A (11730013_a_at) / Fold change /veh MYO3A (11730013_a_at) / RFU EBF3 (11725865_a_at) / Fold change /veh EBF3 (11725865_a_at) / RFU CAMK2N1 (11719241_x_at) / Fold change /veh CAMK2N1 (11719241_x_at) / RFU C5orf56 (11738088_a_at) / Fold change /veh C5orf56 (11738088_a_at) / RFU OLFML3 (11715873_a_at) / Fold change /veh OLFML3 (11715873_a_at) / RFU LOC100653217 /// NTM (11731650_a_at) / Fold change /veh LOC100653217 /// NTM (11731650_a_at) / RFU MAPK11 (11762145_a_at) / Fold change /veh MAPK11 (11762145_a_at) / RFU FIZ1 (11724087_x_at) / Fold change /veh FIZ1 (11724087_x_at) / RFU OASL (11726364_x_at) / Fold change /veh OASL (11726364_x_at) / RFU SOX15 (11748057_x_at) / Fold change /veh SOX15 (11748057_x_at) / RFU CD79A (11719716_a_at) / Fold change /veh CD79A (11719716_a_at) / RFU HIST1H1D (11736915_at) / Fold change /veh HIST1H1D (11736915_at) / RFU CASKIN2 (11723855_a_at) / Fold change /veh CASKIN2 (11723855_a_at) / RFU LOC730098 (11760151_x_at) / Fold change /veh LOC730098 (11760151_x_at) / RFU OR4N2 (11742367_at) / Fold change /veh OR4N2 (11742367_at) / RFU PRRT2 (11749266_a_at) / Fold change /veh PRRT2 (11749266_a_at) / RFU SNX32 (11753110_a_at) / Fold change /veh SNX32 (11753110_a_at) / RFU CDHR5 (11726645_a_at) / Fold change /veh CDHR5 (11726645_a_at) / RFU RCAN1 (11760418_a_at) / Fold change /veh RCAN1 (11760418_a_at) / RFU FAM167A (11723789_a_at) / Fold change /veh FAM167A (11723789_a_at) / RFU FAM26E (11764081_at) / Fold change /veh FAM26E (11764081_at) / RFU ISYNA1 (11749810_s_at) / Fold change /veh ISYNA1 (11749810_s_at) / RFU ACY1 (11761880_at) / Fold change /veh ACY1 (11761880_at) / RFU 11764098_at / Fold change /veh 11764098_at / RFU SAMD14 (11745864_x_at) / Fold change /veh SAMD14 (11745864_x_at) / RFU NPB (11741838_a_at) / Fold change /veh NPB (11741838_a_at) / RFU TMPRSS6 (11731388_a_at) / Fold change /veh TMPRSS6 (11731388_a_at) / RFU KRTAP10-2 (11738614_at) / Fold change /veh KRTAP10-2 (11738614_at) / RFU ARHGAP8 /// PRR5-ARHGAP8 (11727945_x_at) / Fold change /veh ARHGAP8 /// PRR5-ARHGAP8 (11727945_x_at) / RFU KRTAP5-7 /// NADSYN1 (11734609_at) / Fold change /veh KRTAP5-7 /// NADSYN1 (11734609_at) / RFU RASL12 (11751679_a_at) / Fold change /veh RASL12 (11751679_a_at) / RFU CDKN2B (11736163_a_at) / Fold change /veh CDKN2B (11736163_a_at) / RFU PRF1 (11729649_at) / Fold change /veh PRF1 (11729649_at) / RFU, ZNF638 /// ZNF638-IT1 / Fold change vs veh, ZNF638 /// ZNF638-IT1 / RFU, PANK3 / Fold change vs veh, PANK3 / RFU, SH3YL1 / Fold change vs veh, SH3YL1 / RFU, ZEB2 / Fold change vs veh, ZEB2 / RFU, NRIP1 / Fold change vs veh, NRIP1 / RFU, PTTG1IP / Fold change vs veh, PTTG1IP / RFU, CAPN2 / Fold change vs veh, CAPN2 / RFU, MED14 / Fold change vs veh, MED14 / RFU, SNORA58 / Fold change vs veh, SNORA58 / RFU, C1orf63 / Fold change vs veh, C1orf63 / RFU, LRRFIP1 / Fold change vs veh, LRRFIP1 / RFU, NDUFAF7 / Fold change vs veh, NDUFAF7 / RFU, SLC12A2 / Fold change vs veh, SLC12A2 / RFU, IBTK / Fold change vs veh, IBTK / RFU, ESF1 / Fold change vs veh, ESF1 / Fold change vs veh, TMEM50B / RFU, TAOK1 / Fold change vs veh, TAOK1 / RFU, ACBD3 / Fold change vs veh, ACBD3 / RFU, TMA16 / Fold change vs veh, TMA16 / RFU, RWDD3 / Fold change vs veh, RWDD3 / RFU, BCAT1 / Fold change vs veh, BCAT1 / RFU, EDEM3 / Fold change vs veh, EDEM3 / RFU, TMEM33 / Fold change vs veh, TMEM33 / RFU, WDR75 / Fold change vs veh, WDR75 / RFU, AHCTF1 / Fold change vs veh, AHCTF1 / RFU, TFRC / Fold change vs veh, TFRC / RFU, ZDHHC17 / Fold change vs veh, ZDHHC17 / RFU, NOM1 / Fold change vs veh, NOM1 / RFU, ARL8B / Fold change vs veh, ARL8B / RFU, ZBTB11 / Fold change vs veh, ZBTB11 / RFU, TAMM41 / Fold change vs veh, TAMM41 / RFU, KIAA1704 /// LOC100996395 / Fold change vs veh, KIAA1704 /// LOC100996395 / RFU, ING1 / Fold change vs veh, ING1 / RFU, TRMT61B / Fold change vs veh, TRMT61B / RFU, FUBP3 / Fold change vs veh, FUBP3 / RFU, TP53 / Fold change vs veh, TP53 / RFU, TNKS2 / Fold change vs veh, TNKS2 / RFU, ZFP14 / Fold change vs veh, ZFP14 / RFU, ACTR2 / Fold change vs veh, ACTR2 / RFU, PPP3R1 / Fold change vs veh, PPP3R1 / RFU, PIK3R1 / Fold change vs veh, PIK3R1 / RFU, HNRNPA1 / Fold change vs veh, HNRNPA1 / RFU, RNF170 / Fold change vs veh, RNF170 / RFU, ZNF28 / Fold change vs veh, ZNF28 / RFU, RNGTT / Fold change vs veh, RNGTT / RFU, OGT / Fold change vs veh, OGT / RFU, BRD1 / Fold change vs veh, BRD1 / RFU, MARS / Fold change vs veh, MARS / RFU, ZNF655 / Fold change vs veh, ZNF655 / RFU, FAHD1 / Fold change vs veh, FAHD1 / RFU, BDP1 / Fold change vs veh, BDP1 / RFU, LRRCC1 / Fold change vs veh, LRRCC1 / RFU, ARID1A / Fold change vs veh, ARID1A / RFU, ZNF146 / Fold change vs veh, ZNF146 / RFU, ZNF330 / Fold change vs veh, ZNF330 / RFU, GPN3 / Fold change vs veh, GPN3 / RFU, C9orf123 / Fold change vs veh, C9orf123 / RFU, N4BP2L2 / Fold change vs veh, N4BP2L2 / RFU, ARFIP1 / Fold change vs veh, ARFIP1 / RFU, FAM179B / Fold change vs veh, FAM179B / RFU, BCL10 / Fold change vs veh, BCL10 / RFU, UHRF1BP1L / Fold change vs veh, UHRF1BP1L / RFU, BET1 / Fold change vs veh, BET1 / RFU, CNOT2 / Fold change vs veh, CNOT2 / RFU, ZNF268 / Fold change vs veh, ZNF268 / Fold change vs veh, ZNF507 / RFU, DGCR2 / Fold change vs veh, DGCR2 / RFU, WDSUB1 / Fold change vs veh, WDSUB1 / Fold change vs veh, HSP90B1 /// MIR3652 / RFU, ADSS / Fold change vs veh, ADSS / RFU, GK / Fold change vs veh, GK / RFU, ZNF148 / Fold change vs veh, ZNF148 / RFU, TAF9 / Fold change vs veh, TAF9 / RFU, SLC1A5 / Fold change vs veh, SLC1A5 / RFU, SLMO2 / Fold change vs veh, SLMO2 / RFU, ABCC4 / Fold change vs veh, ABCC4 / RFU, LOC101060439 /// RAP1B / Fold change vs veh, LOC101060439 /// RAP1B / RFU, RFX7 / Fold change vs veh, RFX7 / RFU, GTPBP10 / Fold change vs veh, GTPBP10 / RFU, CNEP1R1 / Fold change vs veh, CNEP1R1 / RFU, BIVM-ERCC5 /// ERCC5 / Fold change vs veh, BIVM-ERCC5 /// ERCC5 / RFU, ILF3 / Fold change vs veh, ILF3 / RFU 11762660_at / Fold change /veh 11762660_at / RFU VCAN (11757783_s_at) / Fold change /veh VCAN (11757783_s_at) / RFU DDX43 (11728927_at) / Fold change /veh DDX43 (11728927_at) / RFU KRT8 (11758188_x_at) / Fold change /veh KRT8 (11758188_x_at) / RFU NKD1 (11759106_at) / Fold change /veh NKD1 (11759106_at) / RFU SRD5A1 (11742802_a_at) / Fold change /veh SRD5A1 (11742802_a_at) / RFU TPSAB1 /// TPSB2 (11721975_s_at) / Fold change /veh TPSAB1 /// TPSB2 (11721975_s_at) / RFU GSTM3 (11746129_a_at) / Fold change /veh GSTM3 (11746129_a_at) / RFU IL23R (11737362_x_at) / Fold change /veh IL23R (11737362_x_at) / RFU TMEM51 (11727254_a_at) / Fold change /veh TMEM51 (11727254_a_at) / RFU PIWIL2 (11732686_x_at) / Fold change /veh PIWIL2 (11732686_x_at) / RFU ORM1 (11744905_x_at) / Fold change /veh ORM1 (11744905_x_at) / RFU CCDC152 (11743942_at) / Fold change /veh CCDC152 (11743942_at) / RFU ECM1 (11717891_a_at) / Fold change /veh ECM1 (11717891_a_at) / RFU IL23R (11748794_a_at) / Fold change /veh IL23R (11748794_a_at) / RFU TNFAIP8L3 (11732012_x_at) / Fold change /veh TNFAIP8L3 (11732012_x_at) / RFU MBOAT4 (11741988_at) / Fold change /veh MBOAT4 (11741988_at) / RFU 11764193_at / Fold change /veh 11764193_at / RFU TMEM53 (11763286_at) / Fold change /veh TMEM53 (11763286_at) / RFU MAGEB2 (11727129_at) / Fold change /veh MAGEB2 (11727129_at) / RFU TMEM200A (11744735_a_at) / Fold change /veh TMEM200A (11744735_a_at) / RFU CCDC152 (11751479_a_at) / Fold change /veh CCDC152 (11751479_a_at) / RFU FAM211A (11726209_a_at) / Fold change /veh FAM211A (11726209_a_at) / RFU RGS16 (11746705_a_at) / Fold change /veh RGS16 (11746705_a_at) / RFU VCAN (11755009_s_at) / Fold change /veh VCAN (11755009_s_at) / RFU RHOB (11743442_s_at) / Fold change /veh RHOB (11743442_s_at) / RFU RGS16 (11720943_a_at) / Fold change /veh RGS16 (11720943_a_at) / RFU RGS16 (11720944_at) / Fold change /veh RGS16 (11720944_at) / RFU, VPS4B / Fold change vs veh, VPS4B / RFU, CREB1 / Fold change vs veh, CREB1 / RFU, DNAJC13 / Fold change vs veh, DNAJC13 / RFU, GNAQ / Fold change vs veh, GNAQ / RFU, CDK5R1 / Fold change vs veh, CDK5R1 / RFU, ZRANB3 / Fold change vs veh, ZRANB3 / RFU, CUL4A / Fold change vs veh, CUL4A / RFU, CCNY / Fold change vs veh, CCNY / RFU, UFL1 / Fold change vs veh, UFL1 / RFU, COG3 / Fold change vs veh, COG3 / RFU, DIAPH2 / Fold change vs veh, DIAPH2 / RFU, SKA2 / Fold change vs veh, SKA2 / RFU, AFF3 / Fold change vs veh, AFF3 / RFU, LMF1 / Fold change vs veh, LMF1 / RFU, IPO11 / Fold change vs veh, IPO11 / RFU, DFFB / Fold change vs veh, DFFB / RFU, FOXP1 / Fold change vs veh, FOXP1 / RFU, CARD8 / Fold change vs veh, CARD8 / RFU, STRN3 / Fold change vs veh, STRN3 / RFU, ADK / Fold change vs veh, ADK / RFU, RASSF2 / Fold change vs veh, RASSF2 / RFU, WIPF1 / Fold change vs veh, WIPF1 / RFU, LARP1B / Fold change vs veh, LARP1B / RFU, RASA1 / Fold change vs veh, RASA1 / RFU, RB1 / Fold change vs veh, RB1 / RFU, PPFIA1 / Fold change vs veh, PPFIA1 / RFU, MAT2A / Fold change vs veh, MAT2A / RFU, CCT5 / Fold change vs veh, CCT5 / RFU, WDR92 / Fold change vs veh, WDR92 / RFU, CUX1 / Fold change vs veh, CUX1 / RFU, TTC7A / Fold change vs veh, TTC7A / RFU, TMEM135 / Fold change vs veh, TMEM135 / RFU, DEPTOR / Fold change vs veh, DEPTOR / RFU, CPM / Fold change vs veh, CPM / RFU, DNAJB6 / Fold change vs veh, DNAJB6 / RFU, CACNA2D3 / Fold change vs veh, CACNA2D3 / RFU, DTX4 / Fold change vs veh, DTX4 / RFU, TFCP2 / Fold change vs veh, TFCP2 / RFU, GMCL1 /// GMCL1P1 / Fold change vs veh, GMCL1 /// GMCL1P1 / RFU, AEBP2 / Fold change vs veh, AEBP2 / RFU, SNHG1 /// SNORD22 /// SNORD25 /// SNORD26 /// SNORD27 /// SNORD28 /// SNORD29 /// SNORD31 / Fold change vs veh, SNHG1 /// SNORD22 /// SNORD25 /// SNORD26 /// SNORD27 /// SNORD28 /// SNORD29 /// SNORD31 / Fold change (Aza/veh), C12orf56 (ProbeSet 11735607_a_at) / Fold change (ACY-1035/veh), C12orf56 (ProbeSet 11735607_a_at) / Fold change (Aza/veh), FGFR1OP (ProbeSet 11751329_s_at) / Fold change (ACY-1035/veh), FGFR1OP (ProbeSet 11751329_s_at) / Fold change (Aza/veh), VPS36 (ProbeSet 11739960_a_at) / Fold change (ACY-1035/veh), VPS36 (ProbeSet 11739960_a_at) / RFU SYPL1 (11715823_x_at) / Fold change /veh SYPL1 (11715823_x_at) / RFU IGFBP7 (11715501_s_at) / Fold change /veh IGFBP7 (11715501_s_at) / RFU REEP3 (11722064_at) / Fold change /veh REEP3 (11722064_at) / RFU IGLL1 (11728026_x_at) / Fold change /veh IGLL1 (11728026_x_at): dose or concentration left out as unconfirmed
Conditions: ProbeSet 11749477_a_at; LIST B

## Nc1ccc(-c2cccs2)cc1NC(=O)c1ccc2c(c1)cc(C1CC1)n2CCN1CCOCC1 [ACY-1035]
  Fold change vs veh, EDEM3: 0.94
